Data taken from patent US9227971B2, “Pyrazolo[1,5-a]pyrimidine compounds as mTOR inhibitors” (Merck Sharp & Dohme Corp., priority 2010, dated 2016).
Like-named read-outs stand apart in the source and are kept apart here.

Assays:
[1] = tested on: phosphorylated AKT Ser473 (pAKT S473), mTORC2 activity, PC3 cells; experiment: mTOR target engagement assay, immunofluorescent cell-based, pAKT S473 readout (mTORC2 activity); conditions: PC3 cells
In short: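 After blocking, cells were stained overnight at 4 °C with anti-pAKT S473 antibody, then a fluorescent secondary; inhibition was read as reduced fluorescence intensity.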

[2] = tested on: phosphorylated 4E-BP1 Thr37/46 (p4E-BP1 Thr37/46), mTORC1 activity, PC3 cells; experiment: mTOR target engagement assay, immunofluorescent cell-based, p4E-BP1 Thr37/46 readout (mTORC1 activity); conditions: PC3 cells, read-out: p4E-BP1 Thr37/46 IC50
In short: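 Seed PC3 cells overnight; treat with compound dilutions for ninety minutes at 37° C; fix with glyoxal and block; stain with anti-p4E-BP1 Thr37/46 overnight at 4° C, then fluorescent secondary; read fluorescence and fit IC50 against DMSO-only controls.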

## CS(=O)(=O)c1c([C@@H]2C[C@H]3CC[C@@H](C2)N3C(=O)CO)nc2c(-c3ccc(-c4ccncc4)nc3)cnn2c1N [Compound 3.65, 1-((1R,3s,5S)-3-(3-(2,4′-bipyridin-5-yl)-7-amino-6-(methylsulfonyl)pyrazolo[1,5-a]pyrimidin-5-yl)-8-azabicyclo[3.2.1]octan-8-yl)-2-hydroxyethanone]
[1]; Homo sapiens, PC-3, Table 3-1
  IC50: 1000 to 10000 nM
[2]; Homo sapiens, PC-3, Table 3-1
  IC50: 1000 to 10000 nM

## Cc1ccc(-c2cnn3c(N)c(S(C)(=O)=O)c([C@@H]4C[C@H]5CC[C@@H](C4)N5C(=O)c4nnc[nH]4)nc23)cn1 [Compound 3.68, ((1R,3s,5S)-3-(7-amino-3-(6-methylpyridin-3-yl)-6-(methylsulfonyl)pyrazolo[1,5-a]pyrimidin-5-yl)-8-azabicyclo[3.2.1]octan-8-yl)(4H-1,2,4-triazol-3-yl)methanone]
[1]; Table 3-1
  IC50: 100 to 1000 nM
[2]; Table 3-1
  IC50: 100 to 1000 nM

## CS(=O)(=O)c1c([C@@H]2C[C@H]3CC[C@@H](C2)N3C(=O)c2nnc[nH]2)nc2c(-c3cccnc3)cnn2c1N [Compound 3.69, ((1R,3s,5S)-3-(7-amino-6-(methylsulfonyl)-3-(pyridin-3-yl)pyrazolo[1,5-a]pyrimidin-5-yl)-8-azabicyclo[3.2.1]octan-8-yl)(4H-1,2,4-triazol-3-yl)methanone]
[1]; Table 3-1
  IC50: 100 to 1000 nM
[2]; Table 3-1
  IC50: 100 to 1000 nM

## COCCOCC(=O)N1[C@@H]2CC[C@H]1C[C@H](c1nc3c(-c4ccc(-c5ccccc5)nc4)cnn3c(N)c1S(C)(=O)=O)C2 [Compound 3.72, 1-((1R,3s,5S)-3-(7-amino-6-(methylsulfonyl)-3-(6-phenylpyridin-3-yl)pyrazolo[1,5-a]pyrimidin-5-yl)-8-azabicyclo[3.2.1]octan-8-yl)-2-(2-methoxyethoxy)ethanone]
[1]; Homo sapiens, PC-3, Table 3-1
  IC50: 1000 to 10000 nM
[2]; Homo sapiens, PC-3, Table 3-1
  IC50: 1000 to 10000 nM

## CS(=O)(=O)c1c([C@@H]2C[C@H]3CC[C@@H](C2)N3C(=O)c2cc(C(F)(F)F)n[nH]2)nc2c(-c3ccc(-c4ccccc4)nc3)cnn2c1N [Compound 3.73, ((1R,3s,5S)-3-(7-amino-6-(methylsulfonyl)-3-(6-phenylpyridin-3-yl)pyrazolo[1,5-a]pyrimidin-5-yl)-8-azabicyclo[3.2.1]octan-8-yl)(3-(trifluoromethyl)-1H-pyrazol-5-yl)methanone]
[1]; Homo sapiens, PC-3, Table 3-1
  IC50: 1000 to 10000 nM
[2]; Homo sapiens, PC-3, Table 3-1
  IC50: > 10000 nM

## CS(=O)(=O)c1c([C@@H]2C[C@H]3CC[C@@H](C2)N3C(=O)c2ccn[nH]2)nc2c(-c3ccc(-c4ccccc4)nc3)cnn2c1N [Compound 3.74, ((1R,3s,5S)-3-(7-amino-6-(methylsulfonyl)-3-(6-phenylpyridin-3-yl)pyrazolo[1,5-a]pyrimidin-5-yl)-8-azabicyclo[3.2.1]octan-8-yl)(1H-pyrazol-5-yl)methanone]
[1]; Homo sapiens, PC-3, Table 3-1
  IC50: 1 to 100 nM
[2]; Homo sapiens, PC-3, Table 3-1
  IC50: 1 to 100 nM

## CS(=O)(=O)c1c([C@@H]2C[C@H]3CC[C@@H](C2)N3C(=O)c2cc(N)n[nH]2)nc2c(-c3ccc(-c4ccccc4)nc3)cnn2c1N [Compound 3.75, (3-amino-1H-pyrazol-5-yl)((1R,3s,5S)-3-(7-amino-6-(methylsulfonyl)-3-(6-phenylpyridin-3-yl)pyrazolo[1,5-a]pyrimidin-5-yl)-8-azabicyclo[3.2.1]octan-8-yl)methanone]
[1]; Homo sapiens, PC-3, Table 3-1
  IC50: 1 to 100 nM
[2]; Homo sapiens, PC-3, Table 3-1
  IC50: 1 to 100 nM

## CS(=O)(=O)c1c([C@@H]2C[C@H]3CC[C@@H](C2)N3C(=O)c2cc3cnccc3[nH]2)nc2c(-c3ccc(-c4ccccc4)nc3)cnn2c1N [Compound 3.76, ((1R,3s,5S)-3-(7-amino-6-(methylsulfonyl)-3-(6-phenylpyridin-3-yl)pyrazolo[1,5-a]pyrimidin-5-yl)-8-azabicyclo[3.2.1]octan-8-yl)(1H-pyrrolo[3,2-c]pyridin-2-yl)methanone]
[1]; Homo sapiens, PC-3, Table 3-1
  IC50: 1 to 100 nM
[2]; Homo sapiens, PC-3, Table 3-1
  IC50: 1 to 100 nM

## CS(=O)(=O)c1c([C@@H]2C[C@H]3CC[C@@H](C2)N3C(=O)c2cc3cccnc3[nH]2)nc2c(-c3ccc(-c4ccccc4)nc3)cnn2c1N [Compound 3.77, ((1R,3s,5S)-3-(7-amino-6-(methylsulfonyl)-3-(6-phenylpyridin-3-yl)pyrazolo[1,5-a]pyrimidin-5-yl)-8-azabicyclo[3.2.1]octan-8-yl)(1H-pyrrolo[2,3-b]pyridin-2-yl)methanone]
[1]; Homo sapiens, PC-3, Table 3-1
  IC50: 1000 to 10000 nM
[2]; Homo sapiens, PC-3, Table 3-1
  IC50: > 10000 nM

## CS(=O)(=O)c1c([C@@H]2C[C@H]3CC[C@@H](C2)N3C(=O)c2ncc[nH]2)nc2c(-c3ccc(-c4ccccc4)nc3)cnn2c1N [Compound 3.78, ((1R,3s,5S)-3-(7-amino-6-(methylsulfonyl)-3-(6-phenylpyridin-3-yl)pyrazolo[1,5-a]pyrimidin-5-yl)-8-azabicyclo[3.2.1]octan-8-yl)(1H-imidazol-2-yl)methanone]
[1]; Homo sapiens, PC-3, Table 3-1
  IC50: 100 to 1000 nM
[2]; Homo sapiens, PC-3, Table 3-1
  IC50: 100 to 1000 nM

## Cc1n[nH]cc1C(=O)N1[C@@H]2CC[C@H]1C[C@H](c1nc3c(-c4ccc(-c5ccccc5)nc4)cnn3c(N)c1S(C)(=O)=O)C2 [Compound 3.80, ((1R,3s,5S)-3-(7-amino-6-(methylsulfonyl)-3-(6-phenylpyridin-3-yl)pyrazolo[1,5-a]pyrimidin-5-yl)-8-azabicyclo[3.2.1]octan-8-yl)(3-methyl-1H-pyrazol-4-yl)methanone]
[1]; Homo sapiens, PC-3, Table 3-1
  IC50: 1 to 100 nM
[2]; Homo sapiens, PC-3, Table 3-1
  IC50: 1 to 100 nM

## Cc1cc(C(=O)N2[C@@H]3CC[C@H]2C[C@H](c2nc4c(-c5ccc(-c6ccccc6)nc5)ccn4c(N)c2S(C)(=O)=O)C3)[nH]n1 [Compound 3.81, ((1R,3s,5S)-3-(7-amino-6-(methyslulfonyl)-3-(6-phenylpyridin-3-yl)pyrazolo[1,5-a]pyrimidin-5-yl)-8-azabicyclo[3.2.1]octan-8-yl)(3-methyl-1H-pyrazol-5-yl)methanone]
[1]; Homo sapiens, PC-3, Table 3-1
  IC50: 100 to 1000 nM
[2]; Homo sapiens, PC-3, Table 3-1
  IC50: 100 to 1000 nM

## Cc1n[nH]c(CC(=O)N2[C@@H]3CC[C@H]2C[C@H](c2nc4c(-c5ccc(-c6ccccc6)nc5)cnn4c(N)c2S(C)(=O)=O)C3)n1 [Compound 3.82, 1-((1R,3s,5S)-3-(7-amino-6-(methylsulfonyl)-3-(6-phenylpyridin-3-yl)pyrazolo[1,5-a]pyrimidin-5-yl)-8-azabicyclo[3.2.1]octan-8-yl)-2-(3-methyl-1H-1,2,4-triazol-5-yl)ethanone]
[1]; Homo sapiens, PC-3, Table 3-1
  IC50: 100 to 1000 nM
[2]; Homo sapiens, PC-3, Table 3-1
  IC50: 100 to 1000 nM

## CS(=O)(=O)c1c([C@@H]2C[C@H]3CC[C@@H](C2)N3C(=O)c2cn[nH]c2)nc2c(-c3ccc(-c4ccccc4)nc3)cnn2c1N [Compound 3.83, ((1R,3s,5S)-3-(7-amino-6-(methylsulfonyl)-3-(6-phenylpyridin-3-yl)pyrazolo[1,5-a]pyrimidin-5-yl)-8-azabicyclo[3.2.1]octan-8-yl)(1H-pyrazol-4-yl)methanone]
[1]; Homo sapiens, PC-3, Table 3-1
  IC50: 1 to 100 nM
[2]; Homo sapiens, PC-3, Table 3-1
  IC50: 1 to 100 nM

## CS(=O)(=O)c1c([C@@H]2C[C@H]3CC[C@@H](C2)N3C(=O)c2cc(CO)n[nH]2)nc2c(-c3ccc(-c4ccccc4)nc3)cnn2c1N [Compound 3.84, ((1R,3s,5S)-3-(7-amino-6-(methylsulfonyl)-3-(6-phenylpyridin-3-yl)pyrazolo[1,5-a]pyrimidin-5-yl)-8-azabicyclo[3.2.1]octan-8-yl)(3-(hydroxymethyl)-1H-pyrazol-5-yl)methanone]
[1]; Homo sapiens, PC-3, Table 3-1
  IC50: 1 to 100 nM
[2]; Homo sapiens, PC-3, Table 3-1
  IC50: 100 to 1000 nM

## CS(=O)(=O)c1c([C@@H]2C[C@H]3CC[C@@H](C2)N3C(=O)c2cc(CN)n[nH]2)nc2c(-c3ccc(-c4ccccc4)nc3)cnn2c1N [Compound 3.85, ((1R,3s,5S)-3-(7-amino-6-(methylsulfonyl)-3-(6-phenylpyridin-3-yl)pyrazolo[1,5-a]pyrimidin-5-yl)-8-azabicyclo[3.2.1]octan-8-yl)(3-(aminomethyl)-1H-pyrazol-5-yl)methanone]
[1]; Homo sapiens, PC-3, Table 3-1
  IC50: 1 to 100 nM
[2]; Homo sapiens, PC-3, Table 3-1
  IC50: 1 to 100 nM

## CS(=O)(=O)c1c([C@@H]2C[C@H]3CC[C@@H](C2)N3C(=O)c2nnc[nH]2)nc2c(-c3cnn(-c4ccc(F)cc4)c3)cnn2c1N [Compound 3.88, ((1R,3s,5S)-3-(7-amino-3-(1-(4-fluorophenyl)-1H-pyrazol-4-yl)-6-(methyslulfonyl)pyrazolo[1,5-a]pyrimidin-5-yl)-8-azabicyclo[3.2.1]octan-8-yl)(4H-1,2,4-triazol-3-yl)methanone]
[1]; Homo sapiens, PC-3, Table 3-1
  IC50: 100 to 1000 nM
[2]; Homo sapiens, PC-3, Table 3-1
  IC50: 1000 to 10000 nM

## CC(=O)Nc1nnc(C(=O)N2[C@@H]3CC[C@H]2C[C@H](c2nc4c(-c5ccc(-c6ccccc6)nc5)cnn4c(N)c2S(C)(=O)=O)C3)[nH]1 [Compound 3.89]
[1]; Homo sapiens, PC-3, Table 3-1
  IC50: 100 to 1000 nM
[2]; Homo sapiens, PC-3, Table 3-1
  IC50: 100 to 1000 nM

## CS(=O)(=O)c1c([C@@H]2C[C@H]3CC[C@@H](C2)N3C(=O)c2cn[nH]c2N)nc2c(-c3ccc(-c4ccccc4)nc3)cnn2c1N [Compound 3.90, (5-amino-1H-pyrazol-4-yl)((1R,3s,5S)-3-(7-amino-6-(methylsulfonyl)-3-(6-phenylpyridin-3-yl)pyrazolo[1,5-a]pyrimidin-5-yl)-8-azabicyclo[3.2.1]octan-8-yl)methanone]
[1]; Homo sapiens, PC-3, Table 3-1
  IC50: 1 to 100 nM
[2]; Homo sapiens, PC-3, Table 3-1
  IC50: 1 to 100 nM

## CS(=O)(=O)c1c([C@@H]2C[C@H]3CC[C@@H](C2)N3C(=O)C(F)(F)F)nc2c(-c3ccc(-c4ccccc4)nc3)cnn2c1N [Compound 3.91, 1-((1R,3s,5S)-3-(7-amino-6-(methylsulfonyl)-3-(6-phenylpyridin-3-yl)pyrazolo[1,5-a]pyrimidin-5-yl)-8-azabicyclo[3.2.1]octan-8-yl)-2,2,2-trifluoroethanone]
[1]; Homo sapiens, PC-3, Table 3-1
  IC50: 1000 to 10000 nM
[2]; Homo sapiens, PC-3, Table 3-1
  IC50: 1000 to 10000 nM

## COc1ccc(-c2ccc(-c3cnn4c(N)c(S(C)(=O)=O)c([C@@H]5C[C@H]6CC[C@@H](C5)N6C(=O)c5nnc[nH]5)nc34)cn2)cc1C#N [Compound 3.92, 5-(5-(5-((1R,3s,5S)-8-(4H-1,2,4-triazole-3-carbonyl)-8-azabicyclo[3.2.1]octan-3-yl)-7-amino-6-(methylsulfonyl)pyrazolo[1,5-a]pyrimidin-3-yl)pyridin-2-yl)-2-methoxybenzonitrile]
[1]; Homo sapiens, PC-3, Table 3-1
  IC50: 100 to 1000 nM
[2]; Homo sapiens, PC-3, Table 3-1
  IC50: 100 to 1000 nM
